Measurements reported in the NIST ThermoML archive (doi:10.1021/je101144k).
± gives the expanded uncertainty stated by the source.

Assays:
[1] = wn = mass fraction of the nth substance listed; details: for surface tension liquid-gas: Maximal bubble pressure; for mass density / viscosity: 101 kPa, Liquid; for mass density: Pycnometric method
[2] = molar heat capacity at constant pressure; wn = mass fraction of the nth substance listed; details: 101 kPa, Liquid, Small sample (50 mg) DSC

N[C@@H](CO)C(=O)[O-].[K+] [potassium L-serinate] + O
Details	mass density, [1] [kg/m3]	molar heat capacity at constant pressure, [2] [J/K/mol]	surface tension liquid-gas, [1] [mN/m]	viscosity, [1] [mPa·s]
298.15 K, w1 = 0.072	1034.7 ± 0.9	–	73.2 ± 0.6	1.121 ± 0.034
298.15 K, w1 = 0.143	1068.7 ± 1.1	–	74.1 ± 0.6	1.372 ± 0.039
298.15 K, w1 = 0.286	1137 ± 1.6	–	77.9 ± 0.7	1.913 ± 0.052
298.15 K, w1 = 0.43	1201.2 ± 2.2	–	80.4 ± 0.8	2.757 ± 0.077
298.15 K, w1 = 0.573	1263.5 ± 2.8	–	82.2 ± 0.8	4.202 ± 0.12
303.15 K, w1 = 0.072	1033.1 ± 0.9	74.59 ± 1.7	–	1.032 ± 0.032
303.15 K, w1 = 0.143	1066.7 ± 1.1	76.59 ± 1.9	–	1.261 ± 0.037
303.15 K, w1 = 0.286	1134.4 ± 1.7	80.47 ± 1.9	–	1.736 ± 0.048
303.15 K, w1 = 0.43	1198.8 ± 2.2	88.33 ± 2	–	2.485 ± 0.069
303.15 K, w1 = 0.573	1260.5 ± 2.8	98.9 ± 2.2	–	3.685 ± 0.1
308.15 K, w1 = 0.072	–	75.17 ± 1.7	–	–
308.15 K, w1 = 0.143	–	77.62 ± 1.9	–	–
308.15 K, w1 = 0.286	–	81.19 ± 1.9	–	–
308.15 K, w1 = 0.43	–	88.91 ± 2	–	–
308.15 K, w1 = 0.573	–	99.62 ± 2.2	–	–
313.15 K, w1 = 0.072	1028.8 ± 0.9	75.56 ± 1.7	–	0.87 ± 0.029
313.15 K, w1 = 0.143	1061.9 ± 1.1	78.03 ± 1.9	–	1.043 ± 0.032
313.15 K, w1 = 0.286	1129.1 ± 1.6	81.67 ± 1.9	–	1.402 ± 0.041
313.15 K, w1 = 0.43	1193.1 ± 2.2	89.77 ± 2	–	1.996 ± 0.057
313.15 K, w1 = 0.573	1254.4 ± 2.8	100.35 ± 2.5	–	2.927 ± 0.084
318.15 K, w1 = 0.072	–	76.13 ± 1.7	–	–
318.15 K, w1 = 0.143	–	78.65 ± 1.9	–	–
318.15 K, w1 = 0.286	–	82.15 ± 1.9	–	–
318.15 K, w1 = 0.43	–	90.35 ± 2	–	–
318.15 K, w1 = 0.573	–	101.07 ± 2.5	–	–
323.15 K, w1 = 0.072	1024.6 ± 0.9	76.52 ± 1.7	–	0.73 ± 0.026
323.15 K, w1 = 0.143	1056.9 ± 1.1	79.06 ± 1.9	–	0.896 ± 0.029
323.15 K, w1 = 0.286	1123.8 ± 1.6	82.63 ± 1.9	–	1.14 ± 0.035
323.15 K, w1 = 0.43	1187.5 ± 2.2	91.22 ± 2	–	1.767 ± 0.052
323.15 K, w1 = 0.573	1248.5 ± 2.8	101.43 ± 2.5	–	2.556 ± 0.073
328.15 K, w1 = 0.072	–	76.9 ± 1.7	–	–
328.15 K, w1 = 0.143	–	79.47 ± 1.9	–	–
328.15 K, w1 = 0.286	–	83.35 ± 1.9	–	–
328.15 K, w1 = 0.43	–	91.79 ± 2	–	–
328.15 K, w1 = 0.573	–	102.15 ± 2.5	–	–
333.15 K, w1 = 0.072	1019.1 ± 0.9	77.29 ± 1.7	–	0.645 ± 0.024
333.15 K, w1 = 0.143	1051.5 ± 1.1	80.09 ± 1.9	–	0.806 ± 0.028
333.15 K, w1 = 0.286	1118 ± 1.6	83.83 ± 1.9	–	0.989 ± 0.032
333.15 K, w1 = 0.43	1181.6 ± 2.2	92.37 ± 2	–	1.56 ± 0.047
333.15 K, w1 = 0.573	1242.3 ± 2.8	102.51 ± 2.5	–	2.278 ± 0.066
338.15 K, w1 = 0.072	–	77.67 ± 1.7	–	–
338.15 K, w1 = 0.143	–	80.5 ± 1.9	–	–
338.15 K, w1 = 0.286	–	84.31 ± 1.9	–	–
338.15 K, w1 = 0.43	–	92.95 ± 2	–	–
338.15 K, w1 = 0.573	–	102.87 ± 2.5	–	–
343.15 K, w1 = 0.072	1013.9 ± 1	78.06 ± 1.7	–	0.564 ± 0.023
343.15 K, w1 = 0.143	1046.3 ± 1.1	81.12 ± 1.9	–	0.671 ± 0.025
343.15 K, w1 = 0.286	1112.5 ± 1.6	84.79 ± 1.9	–	0.855 ± 0.029
343.15 K, w1 = 0.43	1175.9 ± 2.2	93.24 ± 2	–	1.423 ± 0.044
343.15 K, w1 = 0.573	1236.3 ± 2.7	103.23 ± 2.5	–	2.063 ± 0.06
348.18 K, w1 = 0.072	–	78.25 ± 1.7	–	–
348.18 K, w1 = 0.143	–	81.53 ± 1.9	–	–
348.18 K, w1 = 0.286	–	85.27 ± 1.9	–	–
348.18 K, w1 = 0.43	–	93.81 ± 2.3	–	–
348.18 K, w1 = 0.573	–	103.23 ± 2.5	–	–
353.15 K, w1 = 0.072	1007.8 ± 1	78.44 ± 1.7	–	0.494 ± 0.022
353.15 K, w1 = 0.143	1039.6 ± 1.1	81.74 ± 1.9	–	0.564 ± 0.023
353.15 K, w1 = 0.286	1106 ± 1.7	85.51 ± 1.9	–	0.732 ± 0.027
353.15 K, w1 = 0.43	1169.6 ± 2.2	94.1 ± 2.3	–	1.255 ± 0.041
353.15 K, w1 = 0.573	1229.6 ± 2.7	104.68 ± 2.5	–	1.919 ± 0.058
